From US9113629B2, “4-amino-6-(4-substituted-phenyl)-picolinates and 6-amino-2-(4-substituted-phenyl)-pyrimidine-4-carboxylates and their use as herbicides” (DOW AGROSCIENCES LLC, priority 2013, dated 2015)
Where two headings read alike, the source gives them in different places.

Legend:
[1] = test system: Key Grass and Sedge Weeds as well as Grass Crops; experiment: Post-emergent Test II herbicidal activity (Table 6); type: in vivo; conditions: post-emergence, 336 h
How it was run: (§1)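 Scoring: visual, 0–100% injury at 14 d versus untreated. Treatment: overhead track spray, 187 L/ha, onto plants at the first–second true leaf stage. Growth: greenhouse, ~15 h light, 23–29 °C day, 22–28 °C night.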

[2] = test system: Key Broadleaf Weed and Crop Species; experiment: Post-emergent Test II herbicidal activity (Table 5); type: in vivo; conditions: post-emergence, 336 h, 14 days after application; for pest or weed control at 70 g/ha: application rate 70 g ai/ha; for pest or weed control at 140 g/ha: application rate 140 g ai/ha
How it was run: as §1

[3] = CYPES: yellow nutsedge (Cyperus esculentus), 70 g ai/ha, read-out: Visual Growth Reduction (%) 14 Days After Application, CYPES
[4] = CYPES: yellow nutsedge (Cyperus esculentus), 140 g ai/ha, read-out: Visual Growth Reduction (%) 14 Days After Application, CYPES
[5] = DIGSA: crabgrass (Digitaria sanguinalis), 70 g ai/ha, read-out: Visual Growth Reduction (%) 14 Days After Application, DIGSA
[6] = DIGSA: crabgrass (Digitaria sanguinalis), 140 g ai/ha, read-out: Visual Growth Reduction (%) 14 Days After Application, DIGSA
[7] = ECHCG: barnyardgrass (Echinochloa crus-galli), 70 g ai/ha, read-out: Visual Growth Reduction (%) 14 Days After Application, ECHCG
[8] = ECHCG: barnyardgrass (Echinochloa crus-galli), 140 g ai/ha, read-out: Visual Growth Reduction (%) 14 Days After Application, ECHCG
[9] = ORYSA: rice (Oryza sativa), crop, 70 g ai/ha, read-out: Visual Growth Reduction (%) 14 Days After Application, ORYSA
[10] = ORYSA: rice (Oryza sativa), crop, 140 g ai/ha, read-out: Visual Growth Reduction (%) 14 Days After Application, ORYSA
[11] = SETFA: giant foxtail (Setaria faberi), 70 g ai/ha, read-out: Visual Growth Reduction (%) 14 Days After Application, SETFA
[12] = SETFA: giant foxtail (Setaria faberi), 140 g ai/ha, read-out: Visual Growth Reduction (%) 14 Days After Application, SETFA
[13] = SORVU: grain sorghum (Sorghum vulgare), 70 g ai/ha, read-out: Visual Growth Reduction (%) 14 Days After Application, SORVU
[14] = SORVU: grain sorghum (Sorghum vulgare), 140 g ai/ha, read-out: Visual Growth Reduction (%) 14 Days After Application, SORVU
[15] = TRZSS (wheat, Triticum aestivum), crop, 70 g ai/ha, read-out: Visual Growth Reduction (%) 14 Days After Application, TRZSS
[16] = TRZSS (wheat, Triticum aestivum), crop, 140 g ai/ha, read-out: Visual Growth Reduction (%) 14 Days After Application, TRZSS
[17] = ZEAMX: maize, corn (Zea mays), crop, 70 g ai/ha, read-out: Visual Growth Reduction (%) 14 Days After Application, ZEAMX
[18] = ZEAMX: maize, corn (Zea mays), crop, 140 g ai/ha, read-out: Visual Growth Reduction (%) 14 Days After Application, ZEAMX
[19] = ABUTH: velvetleaf (Abutilon theophrasti), read-out: Visual Growth Reduction (%) 14 Days After Application, ABUTH
[20] = AMARE: redroot pigweed (Amaranthus retroflexus), read-out: Visual Growth Reduction (%) 14 Days After Application, AMARE
[21] = BRSNN: oilseed-rape, canola (Brassica napus), read-out: Visual Growth Reduction (%) 14 Days After Application, BRSNN
[22] = CHEAL: lambsquarters (Chenopodium album), read-out: Visual Growth Reduction (%) 14 Days After Application, CHEAL
[23] = EPHHL: wild poinsettia (Euphorbia heterophylla), read-out: Visual Growth Reduction (%) 14 Days After Application, EPHHL
[24] = HELAN: sunflower (Helianthus annuus), read-out: Visual Growth Reduction (%) 14 Days After Application, HELAN
[25] = VIOTR: wild pansy (Viola tricolor), read-out: Visual Growth Reduction (%) 14 Days After Application, VIOTR

| Compound | pest or weed control at 70 g/ha [1, 3] | pest or weed control at 140 g/ha [1, 4] | pest or weed control at 70 g/ha [1, 5] | pest or weed control at 140 g/ha [1, 6] | pest or weed control at 70 g/ha [1, 7] | pest or weed control at 70 g/ha [2, 19] | pest or weed control at 140 g/ha [2, 19] | pest or weed control at 70 g/ha [2, 20] | pest or weed control at 140 g/ha [2, 20] | pest or weed control at 70 g/ha [2, 21] | pest or weed control at 140 g/ha [2, 21] | pest or weed control at 70 g/ha [2, 22] | pest or weed control at 140 g/ha [2, 22] | pest or weed control at 70 g/ha [2, 23] | pest or weed control at 140 g/ha [2, 23] | pest or weed control at 70 g/ha [2, 24] | pest or weed control at 140 g/ha [2, 24] | pest or weed control at 70 g/ha [2, 25] | pest or weed control at 140 g/ha [2, 25] | melting point | also measured |
| --- | --- | --- | --- | --- | --- | --- | --- | --- | --- | --- | --- | --- | --- | --- | --- | --- | --- | --- | --- | --- | --- |
| COc1c(N)nc(-c2ccc(I)cc2F)nc1C(=O)O [Compound 72] | 0 to 29% | 95 to 100% | 45 to 59% | 60 to 74% | 95 to 100% | 85 to 94% | 85 to 94% | 95 to 100% | 95 to 100% | 85 to 94% | 85 to 94% | 95 to 100% | 95 to 100% | 95 to 100% | 95 to 100% | 95 to 100% | 95 to 100% | 60 to 74% | 60 to 74% | 95 to 98 °C | pest or weed control at 140 g/ha [1, 8]: 95 to 100%; pest or weed control at 70 g/ha [1, 9]: 0 to 29%; pest or weed control at 140 g/ha [1, 10]: 0 to 29%; pest or weed control at 70 g/ha [1, 11]: 45 to 59%; pest or weed control at 140 g/ha [1, 12]: 75 to 84%; pest or weed control at 70 g/ha [1, 13]: 85 to 94%; pest or weed control at 140 g/ha [1, 14]: 95 to 100%; pest or weed control at 70 g/ha [1, 15]: 60 to 74%; pest or weed control at 140 g/ha [1, 16]: 60 to 74%; pest or weed control at 70 g/ha [1, 17]: 60 to 74%; pest or weed control at 140 g/ha [1, 18]: 60 to 74% |
| C#Cc1ccc(-c2nc(N)c(OC)c(C(=O)O)n2)c(F)c1F [Compound 154] |  |  |  |  |  | 0 to 29% | 45 to 59% | 0 to 29% | 0 to 29% | 0 to 29% | 60 to 74% | 0 to 29% | 45 to 59% | 95 to 100% | 95 to 100% | 75 to 84% | 75 to 84% | 0 to 29% | 0 to 29% | 142 to 144 °C | pest or weed control at 70 g/ha ([1]; Triticum aestivum, TRZSS (wheat), application rate 70 g ai/ha, read-out: Visual Growth Reduction (%) 14 Days After Application, TRZSS): 0 to 29%; pest or weed control at 140 g/ha ([1]; Triticum aestivum, TRZSS (wheat), application rate 140 g ai/ha, read-out: Visual Growth Reduction (%) 14 Days After Application, TRZSS): 0 to 29%; pest or weed control at 70 g/ha ([1]; CYPES: yellow nutsedge (Cyperus esculentus), application rate 70 g ai/ha, read-out: Visual Growth Reduction (%) 14 Days After Application, CYPES): 0 to 29%; pest or weed control at 140 g/ha ([1]; CYPES: yellow nutsedge (Cyperus esculentus), application rate 140 g ai/ha, read-out: Visual Growth Reduction (%) 14 Days After Application, CYPES): 0 to 29%; pest or weed control at 70 g/ha ([1]; DIGSA: crabgrass (Digitaria sanguinalis), application rate 70 g ai/ha, read-out: Visual Growth Reduction (%) 14 Days After Application, DIGSA): 0 to 29%; pest or weed control at 140 g/ha ([1]; DIGSA: crabgrass (Digitaria sanguinalis), application rate 140 g ai/ha, read-out: Visual Growth Reduction (%) 14 Days After Application, DIGSA): 0 to 29%; pest or weed control at 70 g/ha ([1]; ECHCG: barnyardgrass (Echinochloa crus-galli), application rate 70 g ai/ha, read-out: Visual Growth Reduction (%) 14 Days After Application, ECHCG): 45 to 59%; pest or weed control at 140 g/ha ([1]; ECHCG: barnyardgrass (Echinochloa crus-galli), application rate 140 g ai/ha, read-out: Visual Growth Reduction (%) 14 Days After Application, ECHCG): 45 to 59%; pest or weed control at 70 g/ha ([1]; ORYSA: rice (Oryza sativa), application rate 70 g ai/ha, read-out: Visual Growth Reduction (%) 14 Days After Application, ORYSA): 0 to 29%; pest or weed control at 140 g/ha ([1]; ORYSA: rice (Oryza sativa), application rate 140 g ai/ha, read-out: Visual Growth Reduction (%) 14 Days After Application, ORYSA): 0 to 29%; pest or weed control at 70 g/ha ([1]; SETFA: giant foxtail (Setaria faberi), application rate 70 g ai/ha, read-out: Visual Growth Reduction (%) 14 Days After Application, SETFA): 0 to 29%; pest or weed control at 140 g/ha ([1]; SETFA: giant foxtail (Setaria faberi), application rate 140 g ai/ha, read-out: Visual Growth Reduction (%) 14 Days After Application, SETFA): 0 to 29%; pest or weed control at 70 g/ha ([1]; SORVU: grain sorghum (Sorghum vulgare), application rate 70 g ai/ha, read-out: Visual Growth Reduction (%) 14 Days After Application, SORVU): 0 to 29%; pest or weed control at 140 g/ha ([1]; SORVU: grain sorghum (Sorghum vulgare), application rate 140 g ai/ha, read-out: Visual Growth Reduction (%) 14 Days After Application, SORVU): 0 to 29%; pest or weed control at 70 g/ha ([1]; ZEAMX: maize, corn (Zea mays), application rate 70 g ai/ha, read-out: Visual Growth Reduction (%) 14 Days After Application, ZEAMX): 0 to 29%; pest or weed control at 140 g/ha ([1]; ZEAMX: maize, corn (Zea mays), application rate 140 g ai/ha, read-out: Visual Growth Reduction (%) 14 Days After Application, ZEAMX): 0 to 29% |
| COC(=O)c1nc(-c2ccc(I)c(F)c2)c(F)c(N)c1Cl [Compound 132] | 45 to 59% | 85 to 94% | 85 to 94% | 85 to 94% | 85 to 94% | 95 to 100% | 95 to 100% | 95 to 100% | 95 to 100% | 95 to 100% | 95 to 100% | 95 to 100% | 95 to 100% | 95 to 100% | 95 to 100% | 95 to 100% | 95 to 100% | 95 to 100% | 95 to 100% | 138 to 140 °C | pest or weed control at 140 g/ha [1, 8]: 75 to 84%; pest or weed control at 70 g/ha [1, 9]: 0 to 29%; pest or weed control at 140 g/ha [1, 10]: 0 to 29%; pest or weed control at 70 g/ha [1, 11]: 0 to 29%; pest or weed control at 140 g/ha [1, 12]: 60 to 74%; pest or weed control at 70 g/ha [1, 13]: 85 to 94%; pest or weed control at 140 g/ha [1, 14]: 95 to 100%; pest or weed control at 70 g/ha [1, 15]: 0 to 29%; pest or weed control at 140 g/ha [1, 16]: 30 to 44%; pest or weed control at 70 g/ha [1, 17]: 95 to 100%; pest or weed control at 140 g/ha [1, 18]: 95 to 100% |
